test: Antagonist activity at CXCR3 assessed as inhibition of ITAC-mediated cell migration in presence of 100% human serum

| SMILES | IC50 [nM] |
| --- | --- |
| C[C@H](c1nc2ncccc2c(=O)n1-c1ccc(F)cc1)N(CC1CCS(=O)(=O)CC1)C(=O)Cc1ccc(C(F)(F)F)c(F)c1 | 90 |
| CCS(=O)(=O)CCN(C(=O)Cc1ccc(F)c(C(F)(F)F)c1)[C@H](C)c1nc2ncccc2c(=O)n1-c1ccc(Cl)cc1 | 102 |
| C[C@H](c1nc2ncccc2c(=O)n1-c1ccc(Cl)cc1)N(CC1CCS(=O)(=O)CC1)C(=O)Cc1ccc(C(F)(F)F)c(F)c1 | 55 |
| C[C@H](c1nc2ncccc2c(=O)n1-c1ccc(C#N)cc1)N(CC1CCS(=O)(=O)CC1)C(=O)Cc1ccc(C(F)(F)F)c(F)c1 | 37 |
| C[C@H](c1nc2ncccc2c(=O)n1-c1ccc(F)cc1)N(CC1CCS(=O)(=O)CC1)C(=O)Cc1ccc(F)c(C(F)(F)F)c1 | 72 |
| CCS(=O)(=O)CCN(C(=O)Cc1ccc(C(F)(F)F)c(F)c1)[C@H](C)c1nc2ncccc2c(=O)n1-c1ccc(C#N)cc1 [(R)-N-(1-(3-(4-cyanophenyl)-4-oxo-3,4-dihydropyrido[2,3-d]pyrimidin-2-yl)ethyl)-N-(2-(ethylsulfonyl)ethyl)-2-(3-fluoro-4-(trifluoromethyl)phenyl)acetamide] | 47 |
| C[C@H](c1nc2ncccc2c(=O)n1-c1ccc(Cl)cc1)N(CC1CCS(=O)(=O)CC1)C(=O)Cc1ccc(F)c(C(F)(F)F)c1 | 45 |
| C[C@H](c1nc2ncccc2c(=O)n1-c1ccc(C#N)cc1)N(CC1CCS(=O)(=O)CC1)C(=O)Cc1ccc(F)c(C(F)(F)F)c1 | 39 |
| CCS(=O)(=O)CCN(C(=O)Cc1ccc(F)c(C(F)(F)F)c1)[C@H](C)c1nc2ncccc2c(=O)n1-c1ccc(F)cc1 | 254 |
| CCS(=O)(=O)CCN(C(=O)Cc1ccc(C(F)(F)F)c(F)c1)[C@H](C)c1nc2ncccc2c(=O)n1-c1ccc(F)cc1 | 292 |
| CCS(=O)(=O)CCN(C(=O)Cc1ccc(C(F)(F)F)c(F)c1)[C@H](C)c1nc2ncccc2c(=O)n1-c1ccc(Cl)cc1 | 107 |
| C[C@H](c1nc2ccccn2c(=O)c1-c1ccc(C#N)cc1)N(CC1CCS(=O)(=O)CC1)C(=O)Cc1ccc(OC(F)(F)F)cc1 | 60 |

— BindingDB's records for doi:10.1016/j.bmcl.2011.10.120 (Amgen, 2011)
